Data as given in ChEMBL document CHEMBL3862043, “Fluorescent Inhibitors as Tools To Characterize Enzymes: Case Study of the Lipid Kinase Phosphatidylinositol 4-Kinase IIIβ (PI4KB)” (J Med Chem, 2017).

Assay: Drug uptake in vesicles of HeLa cells transfected with iRFP-tagged PI4KB (unknown origin) incubated for 30 mins by fluorescence spectroscopy
Assay type: ADME, cell-based
Details: human, 0.5 h; call rule not given here

- Drug uptake: Active
SMILES: CCc1cc(CNc2cc(Cl)nn3c(-c4ccc(OC)c(S(=O)(=O)NCc5cn(-c6cc7ccc(O)cc7oc6=O)nn5)c4)c(C)nc23)ccn1
